Laboratory results published in patent US6096930A, “Herbicidal cyclohexane-1,3-dione derivatives and their preparation process” (Korea Research Institute of Chemical Technology, priority 1994, dated 2000).

Legend:
Experiment in all cases: Herbicidal activity, upland test, post-emergence
Format in all cases: in vivo
[1] = system: DIGSA
From the text: (§1) The sterilized sandy loam soil is filled in test pot having a surface area of 348 cm^2 for upland test conditions or 115 cm^2 for paddy test species were planted in furrows.
(§2) The pots for the post-emergent tests were placed in a greenhouse and watered for 9~14 days, then the foliage of test plants was sprayed with a solution of the test compound in a mixture of acetone and water containing a small amount of Tween 20.
(§3) After spraying the plants were kept for one day, then watered regularly for 14 to 21 days, and herbicidal activity data were recorded.
(§4) The herbicidal activity data were taken visually by percent control, wherein 0 signifies no herbicidal effect and 100 signifies complete kill.

[2] = system: ECHOR
From the text: as §1, §2, §3, §4

[3] = system: PANDI
From the text: as §1, §2, §3, §4

[4] = system: AESIN
From the text: as §1, §2, §3, §4

[5] = system: SOLNI
From the text: as §1, §2, §3, §4

[6] = system: ABUTH
From the text: as §1, §2, §3, §4

[7] = system: TRZAW
From the text: as §1, §2, §3, §4

[8] = system: ZEAMX
From the text: as §1, §2, §3, §4

[9] = system: ORYSA
From the text: as §1, §2, §3, §4

[10] = system: BROJA
From the text: as §1, §2, §3, §4

[11] = system: GLXMX
From the text: as §1, §2, §3, §4

[12] = system: GOSHI
From the text: as §1, §2, §3, §4

`CCON=C(CC)C1=C(O)CC(c2c(C)c(C)c3c(c2C)CC(C)(C)C3)CC1=O` (stereo not shown) [Compound 2] was tested, and the “Herbicidal activity, DIGSA” value ([1]; 0.063 kg/ha) was 100 % inhibition, the “Herbicidal activity, DIGSA” value ([1]; 1.000 kg/ha) was 100 % inhibition and the “Herbicidal activity, DIGSA” value ([1]; 1.250 kg/ha) was 100 % inhibition. For the same compound, the “Herbicidal activity, ECHOR” value ([2]; 0.004 kg/ha) was 80 % inhibition, the “Herbicidal activity, ECHOR” value ([2]; 0.016 kg/ha) was 90 % inhibition and the “Herbicidal activity, ECHOR” value ([2]; 0.063 kg/ha) was 100 % inhibition. The “Herbicidal activity, ECHOR” value ([2]; 1.000 kg/ha) was 100 % inhibition, the “Herbicidal activity, ECHOR” value ([2]; 1.250 kg/ha) was 100 % inhibition and the “Herbicidal activity, PANDI” value ([3]; 0.004 kg/ha) was 0 % inhibition. The “Herbicidal activity, PANDI” value ([3]; 0.016 kg/ha) was 40 % inhibition, the “Herbicidal activity, PANDI” value ([3]; 0.063 kg/ha) was 100 % inhibition and the “Herbicidal activity, PANDI” value ([3]; 1.000 kg/ha) was 100 % inhibition. For the same compound, the “Herbicidal activity, PANDI” value ([3]; 1.250 kg/ha) was 100 % inhibition, the “Herbicidal activity, AESIN” value ([4]; 0.004 kg/ha) was 0 % inhibition and the “Herbicidal activity, AESIN” value ([4]; 0.016 kg/ha) was 0 % inhibition. The “Herbicidal activity, AESIN” value ([4]; 0.063 kg/ha) was 0 % inhibition, the “Herbicidal activity, AESIN” value ([4]; 1.000 kg/ha) was 0 % inhibition and the “Herbicidal activity, AESIN” value ([4]; 1.250 kg/ha) was 0 % inhibition. For the same compound, the “Herbicidal activity, SOLNI” value ([5]; 0.004 kg/ha) was 0 % inhibition, the “Herbicidal activity, SOLNI” value ([5]; 0.016 kg/ha) was 0 % inhibition and the “Herbicidal activity, SOLNI” value ([5]; 0.063 kg/ha) was 0 % inhibition. For the same compound, the “Herbicidal activity, SOLNI” value ([5]; 1.000 kg/ha) was 0 % inhibition, the “Herbicidal activity, SOLNI” value ([5]; 1.250 kg/ha) was 0 % inhibition and the “Herbicidal activity, ABUTH” value ([6]; 0.004 kg/ha) was 0 % inhibition. For the same compound, the “Herbicidal activity, ABUTH” value ([6]; 0.016 kg/ha) was 0 % inhibition, the “Herbicidal activity, ABUTH” value ([6]; 0.063 kg/ha) was 0 % inhibition and the “Herbicidal activity, ABUTH” value ([6]; 1.000 kg/ha) was 0 % inhibition. The “Herbicidal activity, ABUTH” value ([6]; 1.250 kg/ha) was 0 % inhibition, the “Herbicidal activity, TRZAW” value ([7]; 0.004 kg/ha) was 0 % inhibition and the “Herbicidal activity, TRZAW” value ([7]; 0.016 kg/ha) was 0 % inhibition. For the same compound, the “Herbicidal activity, TRZAW” value ([7]; 0.063 kg/ha) was 40 % inhibition, the “Herbicidal activity, TRZAW” value ([7]; 1.000 kg/ha) was 100 % inhibition and the “Herbicidal activity, TRZAW” value ([7]; 1.250 kg/ha) was 100 % inhibition. The “Herbicidal activity, ZEAMX” value ([8]; 0.004 kg/ha) was 0 % inhibition, the “Herbicidal activity, ZEAMX” value ([8]; 0.016 kg/ha) was 40 % inhibition and the “Herbicidal activity, ZEAMX” value ([8]; 0.063 kg/ha) was 100 % inhibition. For the same compound, the “Herbicidal activity, ZEAMX” value ([8]; 1.000 kg/ha) was 100 % inhibition, the “Herbicidal activity, ZEAMX” value ([8]; 1.250 kg/ha) was 100 % inhibition and the “Herbicidal activity, ORYSA” value ([9]; 0.004 kg/ha) was 0 % inhibition. For the same compound, the “Herbicidal activity, ORYSA” value ([9]; 0.016 kg/ha) was 20 % inhibition, the “Herbicidal activity, ORYSA” value ([9]; 0.063 kg/ha) was 40 % inhibition and the “Herbicidal activity, ORYSA” value ([9]; 1.000 kg/ha) was 100 % inhibition. The “Herbicidal activity, ORYSA” value ([9]; 1.250 kg/ha) was 100 % inhibition, the “Herbicidal activity, BROJA” value ([10]; 0.004 kg/ha) was 0 % inhibition and the “Herbicidal activity, BROJA” value ([10]; 0.016 kg/ha) was 0 % inhibition. For the same compound, the “Herbicidal activity, BROJA” value ([10]; 0.063 kg/ha) was 60 % inhibition, the “Herbicidal activity, BROJA” value ([10]; 1.000 kg/ha) was 100 % inhibition and the “Herbicidal activity, BROJA” value ([10]; 1.250 kg/ha) was 100 % inhibition. The “Herbicidal activity, GLXMX” value ([11]; 0.004 kg/ha) was 0 % inhibition, the “Herbicidal activity, GLXMX” value ([11]; 0.016 kg/ha) was 0 % inhibition and the “Herbicidal activity, GLXMX” value ([11]; 0.063 kg/ha) was 30 % inhibition. For the same compound, the “Herbicidal activity, GLXMX” value ([11]; 1.000 kg/ha) was 60 % inhibition, the “Herbicidal activity, GLXMX” value ([11]; 1.250 kg/ha) was 40 % inhibition and the “Herbicidal activity, GOSHI” value ([12]; 0.004 kg/ha) was 0 % inhibition. For the same compound, the “Herbicidal activity, GOSHI” value ([12]; 0.016 kg/ha) was 0 % inhibition, the “Herbicidal activity, GOSHI” value ([12]; 0.063 kg/ha) was 40 % inhibition and the “Herbicidal activity, GOSHI” value ([12]; 1.000 kg/ha) was 70 % inhibition. For the same compound, the “Herbicidal activity, GOSHI” value ([12]; 1.250 kg/ha) was 50 % inhibition.
